# Test results reported in patent US9006185B2, “Use of cell-permeable peptide inhibitors of the JNK signal transduction pathway for the treatment of various diseases” (Xigen Inflammation Ltd., priority 2008, dated 2015).
# “Also recorded” adds a separate entry of the source.
# Experiments:
# C57BL/6 mice = assay: Bleomycin induced lung fibrosis; type: in vivo; details: for histology: inflammatory cells accumulation, fibrotic areas, loss of lung architecture: day 10
# Text: In order to determine the activity of the exemplary all-D retro-inverso IB(s) peptide XG-102 (SEQ ID NO: 11) in the treatment of Chronic Obstructive Pulmonary Disease (COPD) XG-102 (SEQ ID NO: 11) is used in an animal model of Bleomycin induced acute lung inflammation and fibrosis. The protocol of bleomycin induced inflammation and fibrosis has been described before in the literature. The aim of the Experiment was to investigate the effect of XG-102 (SEQ ID NO: 11) by subcutaneous (s.c.) route on neutrophil recruitment in broncho alveolar lavage (BAL) and lung in bleomycin induced inflammation and fibrosis: • at 1 day after a single bleomycin administration (10 mg/kg) • and at day 10 with the development of fibrosis 1) Method and Experimental Approach • The test compound XG-102 (SEQ ID NO: 11) at two doses and vehicle control were given s.c. with a single intranasal administration of bleomycin and mice were analyzed after 1 and 10 days. The animals used in the model were 10 C57BL/6 mice (8 weeks old) per group. The experimental groups included vehicle, 0.001 mg/kg XG-102 (SEQ ID NO: 11) and 0.1 mg/kg XG-102 (SEQ ID NO: 11), and the treatment consisted of repeated sub-cutaneous administration of XG-102 (SEQ ID NO: 11), prior to bleomycin administration then every 3 days. Acute lung inflammation at 24 h was monitored by BAL lavage, cytology, cell counts, and lung myeloperoxidase activity. The effect of the compound was compared with vehicle controls. Lung fibrosis was assessed histologically using hematoxylin and eosin staining at day 10 after the single dose of bleomycin. […] 1.4) Cell Count and Determination • Total cell count was determined in BAL fluid using a Malassez hemocytometer. […] 1.5) TNF Measurement • TNF level in BALF was determined using ELISA assay kits (Mouse DuoSet, R&D system, Minneapolis, USA) according to manufacturer's instructions. […] 1.6) MPO-Measurement • MPO-levels were measured upon administration of XG-102. […]
# Text for db/db mice: i) Animals • A total of twenty (20) male db/db mice (8 weeks old) were obtained from Charles River (Germany). Upon arrival, animals were group housed (n=6-7/group) and offered regular rodent chow (Altromin standard #1324 chow; C. Petersen, Ringsted, Denmark) and water ad libitum unless otherwise stated. • The mice were housed under a 12:12 L/D cycle (lights on at 4:00 and lights off at 16:00) and in temperature and humidity controlled rooms.
# ii) Groups and Randomization • On day 4, mice were randomized according to blood glucose level (fasted; blood glucose measured on Biosen S line analyzer (EKF diagnostic, Germany) to participate in one of the following drug treatment groups (n=6): • 1) Vehicle control, S.C. […] Drug purity: 95.28%, peptide content: 78.0%. All compounds were administered sub-cutaneously (s.c.) in a volume of 3 ml/kg. […] The formulations (concentrations of 0.33 and 3.3 mg/ml, corresponding to the doses of 1 and 10 mg/kg, respectively) were prepared according to the procedure detailed below. […] Aliquots are prepared for each treatment day and stored at approximately −80° C. Dilutions of this stock solution to the required concentrations are performed on each treatment day; • Storage of the stock solution: at approximately −80° C.; • Storage of the diluted preparations: at room temperature for 24 hours maximum. • Prior to solubilisation, the powder was stored at −20° C. The stability of the stock solution is 3 months at approximately −80° C.; the stability of the diluted formulations for animal dosing is 24 hours at room temperature. Unused diluted material could be stored for up to 7 days if kept at 4-8° C. c) Experimental Procedure
# Following 8 days of acclimatization the mice were treated daily at 08.00 AM for 21 days by SC dosing 8 hours prior to lights out at 04.00 PM according to the outline groups.
# i) Blood Glucose • Blood glucose was measured from 7 hour fasted animals 6 hours post dosing by collection of 10 μl blood samples from the tail-vein in hematocrite tubes and subsequent analysis on a Biosen s-line analyzer (EKF-diagnostic; Germany).
# ii) Metabolic Cages • Groups 1+3: Mice were placed in metabolic cages for the recording of 24-hour food and water intake as well as 24-hour urine and feces production. Mice were stratified into two sub-teams of n=6-7 and subsequently the metabolic characterisation were performed on study days 71-72.
# iii) Adipokine Panel • Groups 1+3: On three occasions (study days 57, 66 and 108) blood was collected from the tail vein using EDTA coated hematocrite tubes (100 μl). Following centrifugation of blood the plasma was collected and stored at −20° C. until measurement. Then, the following panel of adipokines/cytokines was determined using Luminex based 7-plex: leptin, resistin, MCP-1, PAI-1, TNF, insulin and interleukin-6 (IL-6).
# iv) Termination • Groups 1+3 (day 111): The following organs were excised and weighed: inguinal subcutaneous fat, epididymal fat, retroperitoneal fat, brain, liver, kidney, spleen and heart. All organs described above were samples in 4% PFA for possible future histo-pathological examination. Also, pancreas (en bloc) was sampled for possible stereological and immunohistochemical analysis, and eyes were sampled for possible later analysis of retinopathy. Group 2 (day 28): No tissues or plasma were collected. c) Results
structure (smiles),measurement,setting,value
CC(C)C[C@@H](NC(=O)[C@@H](Cc1ccccc1)NC(=O)[C@H]1CCCN1C(=O)[C@@H](CCC(N)=O)NC(=O)[C@H](NC(=O)[C@H]1CCCN1C(=O)[C@@H](CCCNC(=N)N)NC(=O)[C@@H](CO)NC(=O)[C@@H](CCC(N)=O)NC(=O)[C@H](N)CC(=O)O)C(C)C)C(=O)N[C@H](CC(N)=O)C(=O)N[C@H](CC(C)C)C(=O)N[C@@H](C(=O)N[C@@H](C(=O)N1CCC[C@@H]1C(=O)N[C@H](CCCNC(=N)N)C(=O)N[C@H](CCCCN)C(=O)N1CCC[C@@H]1C(=O)N[C@H](CCCNC(=N)N)C(=O)N1CCC[C@@H]1C(=O)N1CCC[C@@H]1C(=O)N[C@H](CCCNC(=N)N)C(=O)N[C@H](CCCNC(=N)N)C(=O)N[C@H](CCCNC(=N)N)C(=O)N[C@H](CCC(N)=O)C(=O)N[C@H](CCCNC(=N)N)C(=O)N[C@H](CCCNC(=N)N)C(=O)N[C@H](CCCCN)C(=O)N[C@H](CCCCN)C(=O)N[C@H](CCCNC(=N)N)C(=O)NCC(=O)O)[C@H](C)O)[C@H](C)O [XG-102],fasting blood glucose,"db/db mice; 1 mg/kg s.c., 28 days of dosing",no effect
same,body weight,"db/db mice; 1 mg/kg, 28 days of dosing",no effect
same,"fasting blood glucose, low plateau",db/db mice; 10 mg/kg s.c.,approximately 5 mmol/L
same,fasting blood glucose vs vehicle control,"db/db mice; 10 mg/kg s.c. daily for 21 days, then wash-out to day 111",clear and significant (p<0.001) decrease in the level of fasting blood glucose
same,"plasma levels of insulin, MCP-1, IL-6, tPAI-1, TNF","db/db mice; 10 mg/kg, day 57, 77 and 108",no significant effects
same,plasma resistin,"db/db mice; 10 mg/kg, day 77 and 108",significantly higher
same,body weight vs vehicle control,"db/db mice; 10 mg/kg, from day 28 to day 111",clear and significant (p<0.001) prevention of body weight increase
same,"24 hour food and water intake, urine and feces production (metabolic cages)","db/db mice; 10 mg/kg, study day 68",no significant effects
same,tissue weight of epididymal and retroperitoneal fat pads,"db/db mice; 10 mg/kg, termination day 111",significant decrease of epididymal (p<0.05) and retroperitoneal (p<0.01) fat mass
same,tissue weight of kidney and liver,"db/db mice; 10 mg/kg, termination day 111",significant decrease of kidney (p<0.05) and liver (p<0.01) mass
same,"alertness, activity, sedation","db/db mice; mouse, in vivo",no signs of sedation
same,lymphocyte recruitment and total cells in bronchioalveolar lavage space,"C57BL/6 mice; 0.001 mg/kg s.c., 3 times in 10 days",reduced significantly the lymphocyte recruitment and the number of total cells recruited
same,"histology: inflammatory cells accumulation, fibrotic areas, loss of lung architecture",C57BL/6 mice; high dose 0.1 mg/kg,not with the high dose
same,"histology: inflammatory cells accumulation, fibrotic areas, loss of lung architecture","C57BL/6 mice; low dose 0.001 mg/kg, 0.001 mg/kg",A decrease of these parameters was observed; also recorded: attenuates the Bleomycin-induced fibrosis
